# Reference: publication PMC7864068, “α2-Macroglobulin-like protein 1 can conjugate and inhibit proteases through their hydroxyl groups, because of an enhanced reactivity of its thiol ester” (The Journal of Biological Chemistry, 2021)
# Where a chain is given by its changes, count along the chain named.
# Assays:
# Experiment in all cases: LC-MS/MS PRM of the pepsin-digested thiol ester peptide conjugate
# Format in all cases: biochemical
# A2M (α2-macroglobulin) [1] = target: T1, A2M (α2-macroglobulin) (Homo sapiens, UniProt P01023, N1088H); conditions: covalent ester at thiol ester Gln-975; recombinant A2M activated by chymotrypsin; 200 mM glycerol, HBS pH 7.4, 37 °C
# T1 construct: WT purified from plasma; N1088H recombinant from HEK293 cells (gene based on mRNA M11311), native form enriched by LRP1 depletion; tetramer; cleaved by chymotrypsin in the assay
# T1 sequence (P01023 24-1474 N1088H): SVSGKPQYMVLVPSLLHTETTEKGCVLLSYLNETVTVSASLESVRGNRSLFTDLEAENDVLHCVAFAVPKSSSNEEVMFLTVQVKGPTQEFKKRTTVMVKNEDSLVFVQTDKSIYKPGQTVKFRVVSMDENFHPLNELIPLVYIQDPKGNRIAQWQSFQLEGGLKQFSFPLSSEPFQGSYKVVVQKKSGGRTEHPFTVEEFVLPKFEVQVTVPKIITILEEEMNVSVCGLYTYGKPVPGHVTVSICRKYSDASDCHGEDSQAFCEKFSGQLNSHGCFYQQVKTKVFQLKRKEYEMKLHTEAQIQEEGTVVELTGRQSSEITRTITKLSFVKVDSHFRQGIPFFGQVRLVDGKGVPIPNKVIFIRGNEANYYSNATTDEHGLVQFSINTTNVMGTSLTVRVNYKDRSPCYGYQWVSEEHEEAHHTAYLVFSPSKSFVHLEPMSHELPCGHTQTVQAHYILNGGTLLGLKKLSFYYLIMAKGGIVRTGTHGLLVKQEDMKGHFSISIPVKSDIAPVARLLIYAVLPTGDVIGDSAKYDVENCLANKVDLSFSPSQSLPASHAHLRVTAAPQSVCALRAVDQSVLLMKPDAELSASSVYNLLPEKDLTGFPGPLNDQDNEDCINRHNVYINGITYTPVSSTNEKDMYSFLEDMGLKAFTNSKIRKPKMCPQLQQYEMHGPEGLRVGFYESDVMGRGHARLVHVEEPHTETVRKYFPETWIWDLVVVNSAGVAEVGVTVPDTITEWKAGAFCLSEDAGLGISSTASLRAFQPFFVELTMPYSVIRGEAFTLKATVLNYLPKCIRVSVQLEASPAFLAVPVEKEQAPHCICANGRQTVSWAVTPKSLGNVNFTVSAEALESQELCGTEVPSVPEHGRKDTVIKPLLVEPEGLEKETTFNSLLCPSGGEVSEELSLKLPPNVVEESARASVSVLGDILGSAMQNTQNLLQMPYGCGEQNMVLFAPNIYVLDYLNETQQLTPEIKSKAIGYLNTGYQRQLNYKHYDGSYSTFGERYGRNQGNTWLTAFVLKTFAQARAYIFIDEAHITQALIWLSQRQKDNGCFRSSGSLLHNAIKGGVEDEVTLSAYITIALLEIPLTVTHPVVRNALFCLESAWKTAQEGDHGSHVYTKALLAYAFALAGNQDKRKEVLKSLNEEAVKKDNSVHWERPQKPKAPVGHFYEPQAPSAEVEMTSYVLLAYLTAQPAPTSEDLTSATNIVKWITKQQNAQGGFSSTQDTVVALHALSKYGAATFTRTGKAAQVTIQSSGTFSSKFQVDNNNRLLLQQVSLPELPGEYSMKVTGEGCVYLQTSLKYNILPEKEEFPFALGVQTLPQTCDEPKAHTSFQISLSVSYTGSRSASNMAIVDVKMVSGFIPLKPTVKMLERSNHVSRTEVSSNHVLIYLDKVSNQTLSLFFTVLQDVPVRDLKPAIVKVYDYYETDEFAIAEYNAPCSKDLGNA
# [2] = target: T2, A2ML1 (α2-macroglobulin-like protein 1) (Homo sapiens, UniProt A8K2U0); conditions: A2ML1 activated by chymotrypsin, HBS pH 7.4, 37 °C
# T2 construct: full-length recombinant, secreted by HEK293 Freestyle cells, no tag mentioned, purified by Zn IMAC, anion exchange and size exclusion; monomer; bait region cleaved by chymotrypsin in the assay
# T2 sequence (A8K2U0 18-1454): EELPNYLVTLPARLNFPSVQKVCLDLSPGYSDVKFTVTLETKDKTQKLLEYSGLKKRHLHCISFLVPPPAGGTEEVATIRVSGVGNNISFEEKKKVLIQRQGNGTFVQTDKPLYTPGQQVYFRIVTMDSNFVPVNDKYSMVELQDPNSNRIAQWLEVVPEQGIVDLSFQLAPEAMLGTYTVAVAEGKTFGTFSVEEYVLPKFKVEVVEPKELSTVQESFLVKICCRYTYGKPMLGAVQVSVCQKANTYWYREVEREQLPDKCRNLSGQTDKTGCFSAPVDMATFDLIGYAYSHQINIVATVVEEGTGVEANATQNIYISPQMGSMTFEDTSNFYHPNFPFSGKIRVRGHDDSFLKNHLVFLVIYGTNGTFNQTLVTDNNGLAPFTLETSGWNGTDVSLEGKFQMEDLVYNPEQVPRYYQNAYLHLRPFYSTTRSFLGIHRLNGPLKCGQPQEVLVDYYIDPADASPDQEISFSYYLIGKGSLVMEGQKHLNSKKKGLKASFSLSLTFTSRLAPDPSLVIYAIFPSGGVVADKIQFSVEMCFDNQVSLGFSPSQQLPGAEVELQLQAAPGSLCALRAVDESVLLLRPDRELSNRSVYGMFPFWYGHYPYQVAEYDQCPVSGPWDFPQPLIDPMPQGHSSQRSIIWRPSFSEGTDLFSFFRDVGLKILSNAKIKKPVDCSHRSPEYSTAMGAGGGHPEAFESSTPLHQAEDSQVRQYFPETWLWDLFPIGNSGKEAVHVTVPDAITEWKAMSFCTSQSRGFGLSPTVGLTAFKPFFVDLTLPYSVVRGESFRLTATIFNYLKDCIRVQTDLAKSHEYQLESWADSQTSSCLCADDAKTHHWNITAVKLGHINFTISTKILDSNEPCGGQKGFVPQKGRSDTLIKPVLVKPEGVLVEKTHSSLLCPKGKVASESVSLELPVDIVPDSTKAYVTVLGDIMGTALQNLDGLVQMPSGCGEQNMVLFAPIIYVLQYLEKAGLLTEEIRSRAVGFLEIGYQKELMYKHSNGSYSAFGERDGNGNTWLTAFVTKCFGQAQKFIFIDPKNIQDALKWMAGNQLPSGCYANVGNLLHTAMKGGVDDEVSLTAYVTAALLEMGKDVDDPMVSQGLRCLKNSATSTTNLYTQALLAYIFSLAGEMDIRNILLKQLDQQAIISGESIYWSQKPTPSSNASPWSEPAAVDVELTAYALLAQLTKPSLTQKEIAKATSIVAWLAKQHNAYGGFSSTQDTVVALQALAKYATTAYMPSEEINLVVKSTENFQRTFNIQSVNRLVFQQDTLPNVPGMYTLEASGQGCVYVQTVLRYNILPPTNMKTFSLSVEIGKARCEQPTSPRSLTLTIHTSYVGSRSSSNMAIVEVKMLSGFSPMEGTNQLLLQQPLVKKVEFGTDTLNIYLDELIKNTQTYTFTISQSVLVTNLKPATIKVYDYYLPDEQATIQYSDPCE
# A2M (α2-macroglobulin) [3] = target: T3, A2M (α2-macroglobulin) (Homo sapiens, UniProt P01023); conditions: covalent amide at thiol ester Gln-975; plasma-purified A2M activated by chymotrypsin; 200 mM glycine, HBS pH 7.4, 37 °C
# T3 construct: WT purified from plasma; N1088H recombinant from HEK293 cells (gene based on mRNA M11311), native form enriched by LRP1 depletion; tetramer; cleaved by chymotrypsin in the assay
# T3 sequence (P01023 24-1474): T1 sequence (P01023 24-1474 N1088H) with H1065N
Structure (SMILES),LC-MS/MS PRM of the pepsin-digested thiol ester peptide conjugate (A2M (α2-macroglobulin) [1]),"LC-MS/MS PRM of the pepsin-digested thiol ester peptide conjugate ([2]; covalent ester at thiol ester Gln-973, 200 mM glycerol)",LC-MS/MS PRM of the pepsin-digested thiol ester peptide conjugate (A2M (α2-macroglobulin) [3]),"LC-MS/MS PRM of the pepsin-digested thiol ester peptide conjugate ([2]; covalent amide at thiol ester Gln-973, 200 mM glycine)"
OCC(O)CO [glycerol],reaction products between the thiol ester and glycerol was detected for A2M N1088H,the reaction product with the hydroxyl substrate glycerol was only detected for WT A2ML1,,
NCC(=O)O [glycine],,,both A2Ms were able to conjugate glycine,both WT and H1084N A2ML1s reacted with the amine substrate glycine
